Numbered stars: 1 amine (or outer) side, 2 acyl side, 3 side chain; on linkers, the order of the positions; unused ones are H or OH. Bridge positions count the residues as written; N and C are the ends. Square brackets hold non-standard residues; d marks the D form. Peptide text beside a SMILES is read from it. Trp(7-OMe) = COc1cccc2c(C[C@H](N)C(=O)O)c[nH]c12; His(π-Bom) = N[C@@H](Cc1cncn1COCc1ccccc1)C(=O)O; Trp(7-Me) = Cc1cccc2c(C[C@H](N)C(=O)O)c[nH]c12; Abu(4-yl) = O=C([C@H](CC[*:3])N[*:1])[*:2]; 2Nal = N[C@@H](Cc1ccc2ccccc2c1)C(=O)O; AEF = NCCOc1ccc(C[C@H](N)C(=O)O)cc1; Cit = NC(=O)NCCC[C@H](N)C(=O)O; Pen = CC(C)(S)[C@H](N)C(=O)O; αMeK = C[C@](N)(CCCCN)C(=O)O; Aib = CC(C)(N)C(=O)O; βAla = NCCC(=O)O
How the values were obtained:
[1] = Stability in cynomolgus monkey fecal homogenate; format: in vitro ADME; conditions: 20% fecal homogenate (supernatant), anaerobic, pH 6.8, 20% cynomolgus monkey fecal homogenate, 37° C., read-out: t½: Monkey Feces anaerobic (converted)
Experimental: (§1) Centrifuged the homogenate at 2800×g for 15 min. The supernatant is taken out and used for incubations. […] The final test compound concentration was 20 μM.

[2] = Stability in human fecal homogenate; format: in vitro ADME; conditions: 20% fecal homogenate (supernatant), pH 6.8, 20% human fecal homogenate, anaerobic, 37° C., read-out: t½: Human Feces anaerobic (converted)
Experimental: as §1

[3] = target: IL-23R-expressing DB cells (Homo sapiens, UniProt Q5VWK5); assay: DB cells IL23R pSTAT3 cell assay (pStat3HTRF); format: cell-based; conditions: DB cells stimulated with IL-23 0.5 nM, 30 minutes, phospho-STAT3 in cell lysates; read-out: pStat3 HTRF
Text: Human ELISA indicates the IL23-IL23R competitive binding assay described below, Rat ELISA indicates the rat IL-23R competitive binding ELISA assay described below, and pStat3HTRF indicates the DB cells IL-23R pSTAT3 cell assay described below. The peptides depicted in Table E1 are cyclized via a disulfide bridge formed between two Pen residues in these peptides. The peptides depicted in Table E2 are cyclized via a thioether bond between the indicated amino acid residues. Table E2 provides an illustrative structure depicting thioether cyclization, which is indicated in the table by the term “cyclo,” with the cyclic region bracketed immediately following the term “cyclo.” For certain peptides, the residue Abu is present where indicated, whereas in other embodiments, e.g., those related to the non-cyclized form, the Abu may be referred to as a hSer(Cl) or homoSer residue. The petpides depicted in Table E3 are cyclized via a disulfide bridge formed between two Pen residues or a thioether bond between Abu and Cys.
IL-23 plays a central role in supporting and maintaining Th17 differentiation in vivo. This process is thought to be mediated primarily through the Signal Transducer and Activator of Transcription 3 (STAT3), with phosphorylation of STAT3 (to yield pSTAT3) leading to upregulation of RORC and pro-inflammatory IL-17. This cell assay examines the levels of pSTAT3 in IL-23R-expressing DB cells when stimulated with IL-23 in the presence of test compounds. Serial dilutions of test peptides and IL-23 (Humanzyme #HZ-1261) at a final concentration of 0.5 nM, were added to each well in a 96 well tissue culture plate (Corning #CLS3894). DB cells (ATCC #CRL-2289), cultured in RPMI-1640 medium (Thermo Scientific #11875093) supplemented with 10% FBS, were added at 5×10E5 cells/well and incubated for 30 minutes at 37° C. in a 5% CO2 humidified incubator. Changes in phospho-STAT3 levels in the cell lysates were detected using the Cisbio HTRF pSTAT3 (Tyr705) Cellular Assay Kit (Cisbio #62AT3PEH), according to manufacturer's Two Plate Assay protocol.

Stability in rat plasma = format: in vitro ADME; conditions: both sexes, SD rat plasma, EDTA, 37° C., read-out: t½: Rat Plasma EDTA (converted)
Experimental: Peptides of interest (20 μM) were incubated with pre-warmed rat plasma (SD rat, mixed gender pooled, EDTA, filtered through 0.22 μm, BioreclamationIVT) at 37° C. […] Quenched samples were stored at 4° C. until the end of the experiment and centrifuged at 4,000 rpm for 10 minutes. The supernatant were diluted 1:1 with deionized water and analyzed using LC-MS. Percentage remaining at each time point was calculated based on the peak area ratio (analyte over internal standard) relative to the initial level at time zero. Half-lives were calculated by fitting to a first-order exponential decay equation using GraphPad.

[4] = Stability in simulated intestinal fluid (SIF); format: in vitro ADME; conditions: simulated intestinal fluid with pancreatin, pH 6.8, 37° C., matrix is 100 fold dilution of standard SIF concentration; for half-life at 20 μM: read-out: SIF t½ (converted); for SIF t½: 20 μM

Sequence of IL-23R-expressing DB cells (Q5VWK5 24-629 limits assumed): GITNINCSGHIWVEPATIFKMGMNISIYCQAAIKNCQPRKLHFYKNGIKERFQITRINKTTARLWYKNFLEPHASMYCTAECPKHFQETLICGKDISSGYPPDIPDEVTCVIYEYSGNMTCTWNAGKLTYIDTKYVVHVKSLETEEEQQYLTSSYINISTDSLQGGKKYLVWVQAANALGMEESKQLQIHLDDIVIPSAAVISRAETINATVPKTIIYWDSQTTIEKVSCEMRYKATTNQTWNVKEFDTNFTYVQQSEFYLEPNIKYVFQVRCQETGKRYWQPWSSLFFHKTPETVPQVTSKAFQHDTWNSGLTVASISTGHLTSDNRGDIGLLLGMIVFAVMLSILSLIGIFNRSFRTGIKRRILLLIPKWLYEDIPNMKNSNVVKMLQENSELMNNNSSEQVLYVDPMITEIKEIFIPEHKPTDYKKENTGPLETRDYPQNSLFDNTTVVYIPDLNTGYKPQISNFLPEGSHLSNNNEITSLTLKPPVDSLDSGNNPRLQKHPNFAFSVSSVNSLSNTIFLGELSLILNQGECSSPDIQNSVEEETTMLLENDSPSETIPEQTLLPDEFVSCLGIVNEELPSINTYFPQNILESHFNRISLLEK

Compound	half-life at 20 μM ([1]; cynomolgus monkey)	half-life at 20 μM [2]	IC50 [3]	half-life at 20 μM (Stability in rat plasma)	half-life at 20 μM [4]	half-life at 20 μM [1]	SIF t½ [4]
CC(=O)NCCCC[C@H](NC(=O)C1(NC(=O)[C@H](Cc2ccc3ccccc3c2)NC(=O)[C@H](Cc2ccc(OCCN)cc2)NC(=O)[C@H]2NC(=O)[C@H](CCC(N)=O)NC(=O)[C@H](Cc3c[nH]c4c(C)cccc34)NC(=O)[C@H]([C@@H](C)O)NC(=O)[C@H](CC(N)=O)NC(=O)[C@@H](NC(C)=O)C(C)(C)SSC2(C)C)CCNCC1)C(=O)N[C@@H](CC(N)=O)C(=O)NCCC(N)=O [compound 275]	8 h	> 24 h	2.17 nM	> 24 h			
CC(=O)N[C@@H]1C(=O)N[C@@H](CC(N)=O)C(=O)N[C@@H]([C@@H](C)O)C(=O)N[C@@H](Cc2c[nH]c3c(C)cccc23)C(=O)N[C@@H](CCCNC(N)=O)C(=O)N[C@H](C(=O)N[C@@H](Cc2ccc(OCCN)cc2)C(=O)N[C@@H](Cc2ccc3ccccc3c2)C(=O)N[C@@](C)(CCCCN)C(=O)N[C@@H](CCCNC(N)=O)C(=O)NCCC(=O)NCCC(N)=O)C(C)(C)SSC1(C)C [compound 281] (Ac-[Pen]NT[Trp(7-Me)][Cit][Pen][AEF][2Nal][αMeK][Cit][βAla][βAla]-NH2; disulfide 1-6)	> 24 h	> 24 h	17.7 nM	> 24 h	14 h		
CC(=O)NCCCC[C@@H]1NC(=O)[C@H](Cc2c[nH]c3c(C)cccc23)NC(=O)[C@H]([C@@H](C)O)NC(=O)[C@H](CC(N)=O)NC(=O)[C@@H](NC(C)=O)C(C)(C)SSC(C)(C)[C@@H](C(=O)N[C@@H](Cc2cncn2COCc2ccccc2)C(=O)N[C@@H](Cc2ccc3ccccc3c2)C(=O)N[C@@](C)(CCCCN)C(=O)N[C@@H](CCCCNC(C)=O)C(=O)N[C@@H](CC(N)=O)C(=O)N[C@H](CC(C)C)C(N)=O)NC1=O [compound 291] (Ac-[Pen]NT[Trp(7-Me)]K(Ac)[Pen][His(π-Bom)][2Nal][αMeK]K(Ac)N[dL]-NH2; disulfide 1-6)	> 24 h	> 24 h	> 1000 nM	> 24 h			
CC(=O)NCCCC[C@H](NC(=O)[C@](C)(CCCCN)NC(=O)[C@H](Cc1ccc2ccccc2c1)NC(=O)[C@H](Cc1ccc(OCCN)cc1)NC(=O)[C@H]1NC(=O)[C@H](CCCCNC(=O)C2CCCCC2)NC(=O)[C@H](Cc2c[nH]c3c(C)cccc23)NC(=O)[C@H]([C@@H](C)O)NC(=O)[C@H](CC(N)=O)NC(=O)[C@@H](NC(C)=O)C(C)(C)SSC1(C)C)C(=O)N[C@@H](CC(N)=O)C(=O)N[C@H](CC(C)C)C(N)=O [compound 316]		> 24 h	5.6 nM	> 24 h		> 24 h	24 h
CC(=O)NCCCC[C@H](NC(=O)[C@](C)(CCCCN)NC(=O)[C@H](Cc1ccc2ccccc2c1)NC(=O)[C@H](Cc1ccc(OCCN)cc1)NC(=O)[C@H]1NC(=O)[C@H](CCCNC(N)=O)NC(=O)[C@H](Cc2c[nH]c3c(C)cccc23)NC(=O)[C@H]([C@@H](C)O)NC(=O)[C@H](CC(N)=O)NC(=O)[C@@H](NC(C)=O)C(C)(C)SSC1(C)C)C(=O)N[C@@H](CC(N)=O)C(=O)NC(C)(C)C(=O)N[C@H](CCCNC(=N)N)C(N)=O [compound 345] (Ac-[Pen]NT[Trp(7-Me)][Cit][Pen][AEF][2Nal][αMeK]K(Ac)N[Aib][dR]-NH2; disulfide 1-6)		> 24 h	0.639 nM	> 24 h	12 h	> 24 h	
CCCCCCCC(=O)NCCCC[C@H](NC(=O)[C@](C)(CCCCN)NC(=O)[C@H](Cc1ccc2ccccc2c1)NC(=O)[C@H](Cc1ccc(OCCN)cc1)NC(=O)[C@H]1NC(=O)[C@H](CCCCNC(C)=O)NC(=O)[C@H](Cc2c[nH]c3c(C)cccc23)NC(=O)[C@H]([C@@H](C)O)NC(=O)[C@H](CC(N)=O)NC(=O)[C@@H](NC(C)=O)C(C)(C)SSC1(C)C)C(=O)N[C@@H](CC(N)=O)C(=O)N[C@H](CC(C)C)C(N)=O [compound 358]		> 24 h	3.03 nM	> 24 h		> 24 h	24 h
CC(=O)NCCCC[C@H](NC(=O)[C@](C)(CCCCN)NC(=O)[C@H](Cc1ccc2ccccc2c1)NC(=O)[C@H](Cc1ccc(OCCN)cc1)NC(=O)[C@H]1NC(=O)[C@H](CCCCNC(=O)C(C)(C)N)NC(=O)[C@H](Cc2c[nH]c3c(C)cccc23)NC(=O)[C@H]([C@@H](C)O)NC(=O)[C@H](CC(N)=O)NC(=O)[C@@H](NC(C)=O)C(C)(C)SSC1(C)C)C(=O)N[C@@H](CC(N)=O)C(=O)N[C@H](CC(C)C)C(N)=O [compound 322]	> 24 h	> 24 h	0.648 nM	> 24 h			24 h
CC(=O)NCCCC[C@@H]1NC(=O)[C@H](Cc2c[nH]c3c(C)cccc23)NC(=O)[C@H]([C@@H](C)O)NC(=O)[C@H](CC(N)=O)NC(=O)[C@@H](NC(C)=O)C(C)(C)SSC(C)(C)[C@@H](C(=O)N[C@@H](Cc2ccc(OCCN)cc2)C(=O)N[C@@H](Cc2ccc3ccccc3c2)C(=O)N[C@@](C)(CCCCN)C(=O)N[C@@H](CCCCNC(C)=O)C(=O)N[C@@H](CC(N)=O)C(=O)N[C@H](Cc2ccccc2)C(N)=O)NC1=O [compound 258]	> 24 h	> 24 h	0.92 nM	> 24 h	14 h		
CC(=O)NCCCC[C@H](NC(=O)[C@](C)(CC(C)C)NC(=O)[C@H](Cc1ccc2ccccc2c1)NC(=O)[C@H](Cc1ccc(OCCN)cc1)NC(=O)[C@H]1NC(=O)[C@H](CCC(N)=O)NC(=O)[C@H](Cc2c[nH]c3c(C)cccc23)NC(=O)[C@H]([C@@H](C)O)NC(=O)[C@H](CC(N)=O)NC(=O)[C@@H](NC(C)=O)C(C)(C)SSC1(C)C)C(=O)N[C@@H](C(=O)NCCC(N)=O)[C@H](C)O [compound 218]	> 24 h	> 24 h	11 nM	1 h			
COc1cccc2c(C[C@@H]3NC(=O)[C@H]([C@@H](C)O)NC(=O)[C@H](CC(N)=O)NC(=O)[C@@H](NC(C)=O)C(C)(C)SSC(C)(C)[C@@H](C(=O)N[C@@H](Cc4ccc(OCCN)cc4)C(=O)N[C@@H](Cc4ccc5ccccc5c4)C(=O)N[C@@](C)(CCCCN)C(=O)N[C@@H](CCCCNC(C)=O)C(=O)N[C@@H](CC(N)=O)C(=O)N[C@H](CCCCN)C(N)=O)NC(=O)[C@H](CCCNC(N)=O)NC3=O)c[nH]c12 [compound 300] (Ac-[Pen]NT[Trp(7-OMe)][Cit][Pen][AEF][2Nal][αMeK]K(Ac)N[dK]-NH2; disulfide 1-6)		> 24 h	> 1000 nM	> 24 h		> 24 h	24 h
CC(=O)NCCCC[C@@H]1NC(=O)[C@H](Cc2c[nH]c3c(C)cccc23)NC(=O)[C@H]([C@@H](C)O)NC(=O)[C@H](CCC(N)=O)NC(=O)[C@@H](NC(=O)[C@@H](CCCNC(=N)N)NC(C)=O)CCSC[C@@H](C(=O)N[C@@H](Cc2ccc(OCCN)cc2)C(=O)N[C@@H](Cc2ccc3ccccc3c2)C(=O)N[C@@](C)(CCCCN)C(=O)N[C@@H](CCCCNC(C)=O)C(=O)N[C@@H](CC(N)=O)C(=O)N[C@H](CC(C)C)C(N)=O)NC1=O [compound 325] (Ac-[dR][Abu(4-yl)]QT[Trp(7-Me)]K(Ac)C[AEF][2Nal][αMeK]K(Ac)N[dL]-NH2; thioether 2-7)	22 h	> 24 h	4.45 nM	> 24 h	14 h		

Source: patent US11041000B2, “Peptide inhibitors of interleukin-23 receptor and their use to treat inflammatory diseases” (priority 2019, dated 2021)
